Laboratory results published in patent publication US9493506B2 (Enanta Pharmaceuticals, Inc., priority 2010, dated 2016).

Tests used:
[1] = tested on: HCV replicon with a D168V mutation in a 1a-H77 background; test: transient replicon assay, D168V mutation in 1a-H77 background; format: cell-based, hepatitis C virus (genotype 1a-H77); conditions: Hepatitis C virus, read-out: EC50 in a transient replicon assay with a D168V mutation in a 1a-H77 background
In short: (§1)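 Transient transfection of mutant replicon RNA (1a-H77 with NS2–NS5B, or 1b-N with NS3–NS5B plus E1202G/S2204I) by electroporation into IFN-cured Huh7 cells, plated at 7.5×10^3 cells per well in DMEM with 5% FBS. Serial compound dilutions added 4 h post-transfection (0.5% DMSO final).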

[2] = tested on: HCV replicon with a D168E mutation in a 1a-H77 background; test: transient replicon assay, D168E mutation in 1a-H77 background; format: cell-based, hepatitis C virus (genotype 1a-H77); conditions: Hepatitis C virus, read-out: EC50 in a transient replicon assay with a D168E mutation in a 1a-H77 background
In short: as §1

[3] = tested on: HCV replicon with a R155K mutation in a 1a-H77 background; test: transient replicon assay, R155K mutation in 1a-H77 background; format: cell-based, hepatitis C virus (genotype 1a-H77); conditions: Hepatitis C virus, read-out: EC50 in a transient replicon assay with a R155K mutation in a 1a-H77 background
In short: as §1

dog PK experiment = conditions: in vivo
Excerpt: Those of ordinary skill in the art are aware of the biological assays utililized to test the compounds of the invention. Regarding bioavailability data (F values), a more thorough explanation can be found in Rowland, M and Tozer, T Clinical Pharmacokinetics: Concepts and Applications Lippincott, Williams & Wilkins 3rd ed. 1995, (specifically covered on page 43).

[4] = tested on: HCV replicon with a R155K mutation in a 1b-N background; test: transient replicon assay, R155K mutation in 1b-N background; format: cell-based, hepatitis C virus (genotype 1b-N); conditions: Hepatitis C virus, read-out: EC50 in a transient replicon assay with a R155K mutation in a 1b-N background
Experimental: Replicon cell lines can be maintained in Dulbecco's modified Eagles medium (DMEM) containing 100 IU/ml penicillin, […] streptomycin (Invitrogen), […] G418 (Invitrogen) and 10% (v/v) fetal bovine serum (FBS). Replicon-containing cells can be seeded into 96 well plates at a density of 5000 cells per well in 100 μl DMEM containing 5% FBS. The next day, the compound can be initially diluted in dimethyl sulfoxide (DMSO) to generate a 200× stock of the inhibitor in a series of 8 half-log dilutions. The dilution series can then be diluted 100-fold in the medium containing 5% FBS. […] The inhibitory effects of compounds against the replicons can be determined by measuring either the level of luciferase or HCV RNA. […] Luciferin solution (50 μl, Promega) is added, and luciferase activity is measured with a Victor II luminometer (Perkin-Elmer). To determine HCV RNA levels, RNA extractions can be performed using the CellsDirect kit (Invitrogen), and the HCV RNA copy number can be measured using the SuperScript III Platinum One-Step qRT-PCR system (Invitrogen) and primers specific to the HCV 5′ nontranslated region. Cytotoxicity can be determined by the 3-[4,5-dimethylhiazol-2-yl]-2,5-diphenyltetrazolium bromide (MTT) colorimetric assay as follows. […] The plates are incubated overnight and the optical density can be measured at 570 nm. […]

Cc1cc(C(=O)N[C@H]2CCCCC/C=C\[C@@H]3C[C@@]3(C(=O)NS(=O)(=O)C3(C)CC3)NC(=O)[C@@H]3C[C@@H](Oc4nc5cc(F)ccc5nc4C(C)(F)F)CN3C2=O)no1 [Example 119, N-((2R,6S,13aS,14aR,16aS,Z)-2-(3-(1,1-difluoroethyl)-7-fluoroquinoxalin-2-yloxy)-14a-(1-methylcyclopropylsulfonylcarbamoyl)-5,16-dioxo-1,2,3,5,6,7,8,9,10,11,13a,14,14a,15,16,16a-hexadecahydrocyclopropa[e]pyrrolo[1,2-a][1,4]diazacyclopentadecin-6-yl)-5-methylisoxazole-3-carboxamide]
EC50 [1]: < 25 nM | EC50 [2]: < 3 nM | EC50 [3]: < 1 nM | bioavailability (dog PK experiment; dog PK experiment, 3 mg/kg, read-out: F value (bioavailability)): 64% | AUC (dog PK experiment; dog, dosed at 3 mg/kg): 30000 ng·h/mL

CCc1nc2cccc(F)c2nc1O[C@@H]1C[C@H]2C(=O)N[C@]3(C(=O)NS(=O)(=O)C4(C)CC4)C[C@H]3/C=C\CCCCC[C@H](NC(=O)OC(C)(C)C)C(=O)N2C1 [Example 164, tert-butyl (2R,6S,13aS,14aR,16aS,Z)-2-(3-ethyl-8-fluoroquinoxalin-2-yloxy)-14a-(1-methylcyclopropylsulfonylcarbamoyl)-5,16-dioxo-1,2,3,5,6,7,8,9,10,11,13a,14,14a,15,16,16a-hexadecahydrocyclopropa[e]pyrrolo[1,2-a][1,4]diazacyclopentadecin-6-ylcarbamate]
EC50 [1]: 50 to 250 nM | EC50 [4]: 1 to 10 nM | EC50 [2]: 20 to 50 nM
